This note sets out measurements from patent US10981932B2, “Macrocyclic indole derivatives” (Bayer Aktiengesellschaft, priority 2016, dated 2021).

Like-named read-outs stand apart in the source and are kept apart here. Bounds are passed on as bounds.

The subject of one experiment is MV-4-11. Kind of experiment: Anti-proliferative effect (CellTiter-Glo, 72 h), MV-4-11. In kind it is cell-based. The settings on record: Homo sapiens, MV4-11, 72 h, MV-4-11 cells, median, read-out: IC50 antiproliferation assay MV-4-11 [M] (median). On the procedure:
Assessment of the Anti-Proliferative Effect of Compounds in Different Cell Lines
The impact of compounds on the proliferation of different cell lines was assessed using the CellTiter-Glo® Luminescent Cell Viability reagent from Promega (G7573). Of note, SUDHL10 and SUDHL5 (DLBCL), NCI-H929 (Multiple Myeloma), A2780 (ovarian carcinoma) as well as MV-4-11(AML) cells are sensitive to MCL-1 inhibition.
In parallel, cells were plated in a reference (day 0) plate for time zero determination.
Rim wells were excluded. The cells were incubated for 72 h hours in a humidified incubator at 37° C. The day 0 plate was measured by adding 30 μl/well of CTG solution (CellTiter-Glo® Luminescent Cell Viability reagent, Promega G7573) to time zero wells in the reference plate followed by a 10 minutes incubation and luminescence reading at 0.1 ms, using the PHERAstar FS microplate reader (BMG Labtech).
After 72 h incubation, the treated plates were measured in the same way as the day 0 plate mentioned above.
A general note: Cellular ATP, detected with luciferase, serves as a proxy for viable cell number.

A further experiment concerns the target MCL-1 (Homo sapiens, UniProt Q07820). Kind of experiment: Protein-protein interaction assay MCL-1/Noxa BH3 peptide (MCL-1 assay), TR-FRET. In kind it is binding. The settings on record: MBP-MCL-1 / Noxa BH3-derived peptide, median. Summed up:
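Steady-state competition, MCL-1/Noxa BH3, TR-FRET readout; 1 nM MBP-MCL-1, 11-point dose series 0.1 nM–20 μM; overnight 4 °C equilibration; 4-parameter IC50.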
On the technique in general: In TR-FRET formats the signal depends on donor and acceptor labels being close together.

The subject of experiment [1] is SUDHL5. The experiment is described as follows: Induction of caspase-3/7 activity (Caspase-Glo 3/7), SUDHL5. The format is cell-based. Conditions: Homo sapiens, SU-DHL-5, 3 h, caspase-3/7 induction, SUDHL5 cells, 3 h treatment; median. In short, it runs like this: (§1)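 A 3 h, 37 °C compound incubation precedes the Caspase-Glo 3/7 read. After subtracting medium-only signal, EC50s are fitted against the reference compound's maximal caspase induction.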

For experiment [2], the system named is SUDHL10. Kind of experiment: Induction of cytotoxicity (CellTiter-Glo, 5 h), SUDHL10. Conditions: Homo sapiens, SU-DHL10, 5 h, read-out: Cytotox SUDHL10 [M] (median), SUDHL10 cells, cytotoxicity induction, CellTiter-Glo, 5 h, median.
In experiment [3] the test system is SUDHL5. Kind of experiment: Induction of cytotoxicity (CellTiter-Glo, 5 h), SUDHL5. Conditions: Homo sapiens, SU-DHL-5, 5 h, read-out: Cytotox SUDHL5 [M] (median), SUDHL5 cells, cytotoxicity induction, CellTiter-Glo, 5 h, median.
The subject of another experiment is A2780. The experiment is described as follows: Anti-proliferative effect (CellTiter-Glo, 72 h), A2780. Conditions: A2780 cells, median, read-out: IC50 antiproliferation assay A2780 [M] (median). The format is cell-based. Summed up: (§2)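 Endpoint: CellTiter-Glo luminescence, 10 min after reagent addition. Treatment ran 72 h at 37 °C, humidified. Growth was referenced to a separately plated day 0 plate.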

Experiment [4] has as its system SUDHL10. The experiment is described as follows: Induction of caspase-3/7 activity (Caspase-Glo 3/7), SUDHL10. The format is cell-based. Conditions: caspase-3/7 induction, SUDHL10 cells, 3 h treatment, median. Summed up: as §1
Experiment [5] has as its system SUDHL5. The experiment is described as follows: Anti-proliferative effect (CellTiter-Glo, 72 h), SUDHL5. Conditions: Homo sapiens, SU-DHL-5, 72 h, SUDHL5 cells, antiproliferation, 72 h, median, read-out: Antiproli SUDHL5 [M] (median). In kind it is cell-based. Summed up: as §2

Chain of MCL-1 (Q07820 whole entry): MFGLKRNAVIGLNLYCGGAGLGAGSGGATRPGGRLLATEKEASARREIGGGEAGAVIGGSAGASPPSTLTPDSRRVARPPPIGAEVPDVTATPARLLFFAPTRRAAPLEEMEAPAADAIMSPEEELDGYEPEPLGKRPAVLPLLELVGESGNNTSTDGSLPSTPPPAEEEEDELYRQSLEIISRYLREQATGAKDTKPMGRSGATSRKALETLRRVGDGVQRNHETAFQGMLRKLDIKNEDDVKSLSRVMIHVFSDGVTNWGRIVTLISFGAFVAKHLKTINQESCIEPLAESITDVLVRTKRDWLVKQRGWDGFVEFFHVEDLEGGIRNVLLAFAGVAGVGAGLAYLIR

Consider `CCc1c2c(nn1C)COCCCCn1c(C(=O)O)c(CCCOc3cccc4c3CCCC4)c3cccc-2c31` (racemic) [Example 290, (rac)-12-ethyl-11-methyl-1-(3-((5,6,7,8-tetrahydronaphthalen-1-yl)oxy)propyl)-4,5,6,7,9,11-hexahydropyrazolo[4′,3′:9,10][1]oxa[6]azacycloundecino[8,7,6-hi]indole-2-carboxylic Acid], for which the IC50 was 9.57e-06 M in the experiment with MV-4-11; 2.8 nM at MCL-1; 1.19e-05 M with SUDHL10 [2]; 3.61e-06 M with SUDHL5 [3]; 2.62e-05 M in the experiment with A2780; > 3.3e-05 M in the experiment on A2780 (Homo sapiens, A2780, 72 h). Besides, the IC50 in the experiment with SUDHL5 [5] was 5.06e-06 M. Moreover, the 50% effective concentration (EC50) came to 3.38 µM in the experiment on SUDHL5 [1] and 13.6 µM in the experiment on SUDHL10 [4] (Homo sapiens, SU-DHL10, 3 h).

For `CCc1nn(C)c2c1-c1cccc3c(CCCOc4cccc5c4CCCC5)c(C(=O)O)n(c13)CCCCOC2` (racemic) [Example 291, (rac)-12-ethyl-10-methyl-1-(3-((5,6,7,8-tetrahydronaphthalen-1-yl)oxy)propyl)-4,5,6,7,9,10-hexahydropyrazolo[4′,3′:9,10][1]oxa[6]azacycloundecino[8,7,6-hi]indole-2-carboxylic Acid], the IC50 in the experiment on MV-4-11 was 1.82e-05 M; at MCL-1, 2.38 nM; in the experiment on SUDHL10 [2], > 3.3e-05 M; in the experiment with SUDHL5 [3], 8.6e-06 M; in the experiment on A2780 (Homo sapiens, A2780, 72 h), > 3.3e-05 M; with SUDHL5 [5], 8.71e-06 M. Moreover, the EC50 is 8.51 µM in the experiment on SUDHL5 [1]; 32 µM with SUDHL10 [4] (Homo sapiens, SU-DHL10, 3 h); > 33 µM in the experiment on SUDHL10 [4].

`Cc1ccc2c(CCCOc3cccc4cc(F)ccc34)c(C(=O)O)n3c2c1-c1c(nn(CCN2CCOCC2)c1C)COCCCC3` (racemic) [Example 292, (rac)-7-{3-[(6-fluoronaphthalen-1-yi)oxy]propyl}-3,4-dimethyl-2-[2-(morpholin-4-yl)ethyl]-2,10,11,12,13,15-hexahydropyrazolo[4′,3′:9,10][1,6]oxazacycloundecino[8,7,6-hi]indole-8-carboxylic Acid]: the IC50 is 8.52e-06 M in the experiment with MV-4-11; 1.84 nM against MCL-1; 1.52e-06 M with SUDHL10 [2]; 1.13e-06 M with SUDHL5 [3]; 1.58e-05 M with A2780 (Homo sapiens, A2780, 72 h); 1.59e-06 M in the experiment with SUDHL5 [5]. Further, the EC50 in the experiment on SUDHL5 [1] was 0.671 µM; in the experiment on SUDHL10 [4] (Homo sapiens, SU-DHL10, 3 h), 1.21 µM.

For `Cc1c2c(nn1C)COCCCCn1c(C(=O)O)c(CCCOc3cccc4cc(Cl)ccc34)c3cccc-2c31` (racemic) [Example 295, (rac)-7-{3-[(6-chloronaphthalen-1-yl)oxy]propyl}-2,3-dimethyl-2,10,11,12,13,15-hexahydropyrazolo[4′,3′:9,10][1,6]oxazacycloundecino[8,7,6-hi]indole-8-carboxylic Acid], the IC50 in the experiment with MV-4-11 is 1.58e-05 M; on MCL-1, 5.28 nM; in the experiment on SUDHL10 [2], 1.8e-05 M; in the experiment with SUDHL5 [3], 1.61e-05 M; with A2780 (Homo sapiens, A2780, 72 h) it was 1.72e-05 M; in the experiment with SUDHL5 [5] it was 9.86e-06 M. The EC50 was found to be 17 µM with SUDHL5 [1] and 19 µM in the experiment on SUDHL10 [4] (Homo sapiens, SU-DHL10, 3 h).

As to `CCc1nn(C)c2c1-c1cccc3c(CCCOc4cccc5c(F)cccc45)c(C(=O)O)n(c13)CCCCOC2` (racemic) [Example 298, (rac)-3-ethyl-7-{3-[(5-fluoronaphthalen-1-yl)oxy]propyl}-1-methyl-1,10,11,12,13,15-hexahydropyrazolo[4′,3′:9,10][1,6]oxazacycloundecino[8,7,6-hi]indole-8-carboxylic Acid], the IC50 in the experiment on MV-4-11 was determined as 9.4e-06 M; at MCL-1 it was 1.7 nM; in the experiment with SUDHL10 [2], 2.27e-05 M; in the experiment with SUDHL5 [3] it was 9.1e-06 M; in the experiment on A2780 (Homo sapiens, A2780, 72 h), 2.66e-05 M; in the experiment with SUDHL5 [5], 1.09e-05 M. Also, the concentration giving a half-maximal response (EC50) was found to be 8.78 µM in the experiment with SUDHL5 [1] and 20.5 µM in the experiment with SUDHL10 [4] (Homo sapiens, SU-DHL10, 3 h).

Take `Cc1c2c(nn1C)COCCCCn1c(C(=O)O)c(CCCOc3cccc4cc(F)ccc34)c3cccc-2c31` (racemic) [Example 301, (rac)-7-{3-[(6-fluoronaphthalen-1-yl)oxy]propyl}-2,3-dimethyl-2,10,11,12,13,15-hexahydropyrazolo[4′,3′:9,10][1,6]oxazacycloundecino[8,7,6-hi]indole-8-carboxylic Acid]: the IC50 amounted to 5.99e-06 M in the experiment on MV-4-11; 1.43 nM against MCL-1; 3.5e-06 M in the experiment on SUDHL10 [2]; 1.6e-06 M with SUDHL5 [3]; 1.56e-05 M in the experiment with A2780 (Homo sapiens, A2780, 72 h); 2e-06 M with SUDHL5 [5]. Moreover, the EC50 in the experiment on SUDHL5 [1] was 1.19 µM; with SUDHL10 [4] (Homo sapiens, SU-DHL10, 3 h) it was 3.29 µM.

On to `CCc1nn(C)c2c1-c1cccc3c(CCCOc4cccc5cc(Cl)ccc45)c(C(=O)O)n(c13)CCCCOC2` (racemic) [Example 304, (rac)-11-(3-((6-chloronaphthalen-1-yl)oxy)propyl)-12-ethyl-10-methyl-4,5,6,7,9,10-hexahydropyrazolo[4′,3′:9,10][1,6]oxaazacycloundecino[8,7,6-hi]indole-2-carboxylic Acid], for which the IC50 with MV-4-11 is 3.13e-05 M; against MCL-1, 10.5 nM; in the experiment on SUDHL10 [2], > 3.3e-05 M; in the experiment on SUDHL5 [3], > 3.3e-05 M; in the experiment with A2780 (Homo sapiens, A2780, 72 h), 1.34e-05 M; in the experiment with SUDHL5 [5], 9.84e-06 M. The 50% effective concentration (EC50) in the experiment with SUDHL5 [1] was > 33 µM; in the experiment on SUDHL10 [4] (Homo sapiens, SU-DHL10, 3 h), > 33 µM.

Consider `Cc1ccc2c(OCCCc3c(C(=O)O)n4c5c(cccc35)-c3c(nn(C)c3C)COCCCC4)cccc2c1` (racemic) [Example 307, (rac)-11,12-dimethyl-1-(3-((6-methylnaphthalen-1-yl)oxy)propyl)-4,5,6,7,9,11-hexahydropyrazolo[4′,3′:9,10][1,6]oxaazacycloundecino[8,7,6-hi]indole-2-carboxylic Acid], for which the IC50 in the experiment on MV-4-11 was 1.84e-05 M; on MCL-1, 12.9 nM; with SUDHL10 [2], > 3.3e-05 M; in the experiment with SUDHL5 [3], > 3.3e-05 M; in the experiment with A2780 (Homo sapiens, A2780, 72 h), 1.76e-05 M; in the experiment with SUDHL5 [5], 1.19e-05 M. Besides, the EC50 with SUDHL5 [1] was > 33 µM; with SUDHL10 [4] (Homo sapiens, SU-DHL10, 3 h), > 33 µM.

Regarding `Cc1c2c(nn1C)COCCCCn1c(C(=O)O)c(CCCOc3cccc4cc(C(F)(F)F)ccc34)c3cccc-2c31` (racemic) [Example 310], the IC50 was 1.31e-05 M with MV-4-11; 33.1 nM at MCL-1; 1.75e-05 M with SUDHL10 [2]; 2.36e-05 M in the experiment with SUDHL5 [3]; 6.58e-06 M in the experiment with A2780 (Homo sapiens, A2780, 72 h); 5.42e-06 M in the experiment with SUDHL5 [5]. Further, the EC50 in the experiment with SUDHL5 [1] came to 27.4 µM; in the experiment on SUDHL10 [4] (Homo sapiens, SU-DHL10, 3 h), 21.3 µM.

With `Cc1nn(C)c2c1-c1cccc3c(CCCOc4cccc5c(Cl)cccc45)c(C(=O)O)n(c13)CCCCOC2` (racemic) [Example 316, (rac)-1-(3-((5-chloronaphthalen-1-yl)oxy)propyl)-10,12-dimethyl-4,5,6,7,9,10-hexahydropyrazolo[4′,3′:9,10][1,6]oxaazacycloundecino[8,7,6-hi]indole-2-carboxylic Acid], the IC50 was > 3.3e-05 M in the experiment with MV-4-11; 3.08 nM on MCL-1; > 3.3e-05 M in the experiment on SUDHL10 [2]; 1.94e-05 M with SUDHL5 [3]; > 3.3e-05 M in the experiment on A2780 (Homo sapiens, A2780, 72 h); 1.43e-05 M with SUDHL5 [5]. In addition, the 50% effective concentration (EC50) in the experiment on SUDHL5 [1] is 17.7 µM; in the experiment with SUDHL10 [4] (Homo sapiens, SU-DHL10, 3 h) it was > 33 µM.

Broadly, the EC50 is the concentration at which the effect is half-maximal. Low values mean a more potent agent, high ones a less potent agent.
